This passage reports bioluminescence emission spectra results from paper PMC11100015, “Bioluminescence Imaging of Potassium Ion Using a Sensory Luciferin and an Engineered Luciferase” (Journal of the American Chemical Society, 2024).

This assay deals with T1, BREP (Oplophorus gracilirostris, UniProt Q9GV45, A31E/Q38R/Q45L/D46S/L54V/A60N/K70R/V71I/A81I/F95D/L99Q/M102K/D112N/I117V/P142E/Q151K/Y165I/C191H/N193R).
T1 construct: fusion of mScarlet-I and teLuc (NanoLuc variant) via three-residue linker; recombinant, pBAD/His B, purified; with mScarlet-I red fluorescent protein (engineered RFP, RET acceptor)
T1 sequence (Q9GV45 28-196 with the stated changes): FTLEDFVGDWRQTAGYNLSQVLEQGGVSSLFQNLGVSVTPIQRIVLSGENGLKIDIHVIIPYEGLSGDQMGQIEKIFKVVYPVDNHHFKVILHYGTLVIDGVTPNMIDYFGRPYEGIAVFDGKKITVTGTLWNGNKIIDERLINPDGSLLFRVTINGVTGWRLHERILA
Kind of assay: bioluminescence emission spectra. Format: biochemical. The note with it: MOPS pH 7.4; 25 uM potassiorin, 100 nM enzyme.

Turning to `O=c1c(Cc2ccc(OCCn3cc(-c4ccc(N5CCOCCOCCOCCOCCOCC5)cc4)nn3)cc2)nc2c(-c3ccccc3)[nH]c(-c3ccccc3)cn1-2` [compound 13, potassiorin], the bioluminescence emission spectra result was “We measured the emission spectra of BREP and potassiorin in the absence and presence”.
